Results reported in ChEMBL document CHEMBL5370669, “Isolation and Structure Determination of Akunolides, Macrolide Glycosides from a Marine Okeania sp. Cyanobacterium” (J Nat Prod, 2023).

Assays:
[1] = tested on: Trypanosoma brucei rhodesiense; experiment: Antitrypanosomal activity against blood stream form of Trypanosoma brucei rhodesiense IL-1501 assessed as growth inhibition incubated for 69 hrs by alamar blue staining based microplate fluorescence scanner analysis; assay type: functional, organism-based; conditions: IL-1501, 69 h
[2] = Selectivity ratio of IC50 for cytotoxicity against human WI-38 cells to IC50 for antitrypanosomal activity against Trypanosoma brucei rhodesiense IL-1501; assay type: toxicity, cell-based
[3] = Growth inhibition of human WI-38 cells incubated for 72 hrs by MTT assay; assay type: toxicity, cell-based

IC50 [1]	Structure (SMILES)	selectivity ratio [2]	IC50 at 72 h [3]
11 µM	C#CCCC/C=C/C=C/[C@H]1OC(=O)C[C@@H]2O[C@H](C[C@H](O)C[C@H](C)C[C@@H](O)C1(C)C)C[C@H](O[C@@H]1OC[C@@H](OC)[C@H](OC)[C@H]1O)C2(C)C	> 15	> 150 µM
0.006 µM	N=C(N)c1ccc(OCCCCCOc2ccc(C(=N)N)cc2)cc1 [PENTAMIDINE]		

Further lines, the compound ahead of its results:

Structure (SMILES)	IC50 [1]	selectivity ratio [2]	IC50 at 72 h [3]
CCCCC/C=C/C=C/[C@H]1OC(=O)C[C@@H]2O[C@H](C[C@H](O)C[C@H](C)C[C@@H](O)C1(C)C)C[C@H](O[C@@H]1OC[C@@H](OC)[C@H](O)[C@H]1O)C2(C)C	14 µM		49 µM
C=CCCC/C=C/C=C/[C@H]1OC(=O)C[C@@H]2O[C@H](C[C@H](O)C[C@H](C)C[C@@H](O)C1(C)C)C[C@H](O[C@@H]1OC[C@@H](OC)[C@H](OC)[C@H]1O)C2(C)C	11 µM	5	55 µM
C=CCCC/C=C/C=C/[C@H]1OC(=O)C[C@@H]2O[C@H](C[C@H](O)C[C@H](C)C[C@@H](O)C1(C)C)C[C@H](O[C@@H]1OC[C@@H](OC)[C@H](O)[C@H]1O)C2(C)C	12 µM	> 15	> 150 µM
